The text below walks through data of patent US11407736B2 (priority 2019, dated 2022).

Read-outs that look alike come from different tables or passages of the source.

A word on the IC50: it is the midpoint of a concentration-inhibition curve.

Experiment [1] deals with U937 cells. Nature of the experiment: U937 cell necroptosis assay (TNFa + zVAD, CellTiter-Glo). In kind it is cell-based, human. The settings on record: TNFa + zVAD, read-out: U937 Zvad TNF CTG Recovery, U937, TNFa + zVAD (IC50). The gist of the method:
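Necroptosis was induced with TNFa at 2 ng/mL final for 18 h at 37 °C, following 1 h compound pre-incubation in the presence of zVAD-fmk (60 uM for U937 plating medium, 40 uM for L929 medium). Luminescent CellTiter-Glo signal gave relative cell survival.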
Background: Cellular ATP, detected with luciferase, serves as a proxy for viable cell number.

The test system of experiment [2] is L929 cells. Nature of the experiment: L929 cell necroptosis assay (TNFa + zVAD, CellTiter-Glo). Format: cell-based, murine. As to conditions: TNFa + zVAD, read-out: L929-CTG-recovery, L929, TNFa + zVAD (IC50). Summed up: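 Necroptosis was read as CellTiter-Glo luminescence 18 hours after TNFa stimulation at 37° C, 5% CO2. Prior to that, L929 cells (10K/well, plated 18 h) received fresh medium with 40 uM zVAD-fmk plus 4-fold serially diluted compound.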

The target in experiment [3] is RIPK1 (Homo sapiens (Human), UniProt Q13546). Nature of the experiment: RIPK1 ADP-Glo biochemical kinase assay. As to conditions: read-out: RIPK1 ADP-Glo Kinase (IC50). As to the method:
The final reaction volume was 5.0ul.
Adding 5 μl of ADP-Glo™ terminated the reaction.

[4] abbreviates: Homo sapiens, U-937, U937 cells.

RIPK1, sequence (Q13546 whole entry, species assumed): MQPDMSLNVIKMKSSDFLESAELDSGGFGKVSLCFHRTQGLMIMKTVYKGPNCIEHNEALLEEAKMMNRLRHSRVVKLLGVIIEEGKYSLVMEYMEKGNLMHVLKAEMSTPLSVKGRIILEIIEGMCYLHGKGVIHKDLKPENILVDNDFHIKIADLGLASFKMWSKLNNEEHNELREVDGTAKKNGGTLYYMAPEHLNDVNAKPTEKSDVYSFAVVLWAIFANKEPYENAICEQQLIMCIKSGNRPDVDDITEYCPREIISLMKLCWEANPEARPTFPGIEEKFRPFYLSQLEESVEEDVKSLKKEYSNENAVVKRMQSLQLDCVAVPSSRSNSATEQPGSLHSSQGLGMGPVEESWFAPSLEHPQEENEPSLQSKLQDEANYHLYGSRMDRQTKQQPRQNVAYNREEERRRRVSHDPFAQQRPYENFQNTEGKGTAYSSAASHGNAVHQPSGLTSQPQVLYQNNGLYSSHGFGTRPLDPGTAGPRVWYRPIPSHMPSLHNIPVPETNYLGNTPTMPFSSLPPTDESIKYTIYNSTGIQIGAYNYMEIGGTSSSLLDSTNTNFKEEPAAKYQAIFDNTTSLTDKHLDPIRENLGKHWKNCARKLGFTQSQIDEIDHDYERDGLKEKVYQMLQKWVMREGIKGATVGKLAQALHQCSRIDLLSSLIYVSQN

Regarding `CN1C(=O)[C@@H](NC(=O)c2ncn(Cc3ccccc3)n2)COc2ccc(C#CCCOc3ccc4ncccc4c3)cc21` [Compound I-37, (S)-1-benzyl-N-(5-methyl-4-oxo-7-(4-(quinolin-6-yloxy)but-1-yn-1-yl)-2,3,4,5-tetrahydrobenzo[b][1,4]oxazepin-3-yl)-1H-1,2,4-triazole-3-carboxamide], the IC50 in experiment [1] (setting [4]) was 1 nM; in experiment [2] (Mus musculus, L929, L929 cells), 0.2 nM; in experiment [3], 56.5 nM.

In the case of `CN1C(=O)[C@H](NC(=O)c2n[nH]c(Cc3ccccc3)n2)COc2ccc(C#CC(C)(C)O)cc21` [Compound I-70, (R)-5-benzyl-N-(7-(3-hydroxy-3-methylbut-1-yn-1-yl)-5-methyl-4-oxo-2,3,4,5-tetrahydrobenzo[b][1,4]oxazepin-3-yl)-1H-1,2,4-triazole-3-carboxamide], the IC50 in experiment [1] (setting [4]) was determined as 188 nM; in experiment [2] (Mus musculus, L929, L929 cells), 19.5 nM; in experiment [3], 1160 nM.

With `CN1C(=O)[C@@H](NC(=O)c2ncn(Cc3ccccc3)n2)COc2ccc(C#CC3(O)CCCC3)cc21` [Compound I-52, (S)-1-benzyl-N-(7-((1-hydroxycyclopentyl)ethynyl)-5-methyl-4-oxo-2,3,4,5-tetrahydrobenzo[b][1,4]oxazepin-3-yl)-1H-1,2,4-triazole-3-carboxamide], the IC50 in experiment [1] (setting [4]) amounted to 0.9 nM; in experiment [2] (Mus musculus, L929, L929 cells) it was 0.3 nM; in experiment [3], 24.9 nM.

In the case of `CC(C)[C@H](N)C(=O)OC1(C#Cc2ccc3c(c2)N(C)C(=O)[C@@H](NC(=O)c2cc(Oc4ccccc4)ccn2)CO3)COC1` [Compound I-160, 3-(((S)-5-methyl-4-oxo-3-(4-phenoxypicolinamido)-2,3,4,5-tetrahydrobenzo[b][1,4]oxazepin-7-yl)ethynyl)oxetan-3-yl L-valinate], the IC50 amounted to 0.9 nM in experiment [1] (setting [4]); 44.2 nM in experiment [2] (Mus musculus, L929, L929 cells); 25.3 nM in experiment [3].

As to `CN[C@@H](C)C(=O)OC1(C#Cc2ccc3c(c2)N(C)C(=O)[C@@H](NC(=O)c2cc(Oc4ccccc4)ccn2)CO3)COC1` [Compound I-193], the IC50 was found to be 361 nM in experiment [1] (U937 cells), 7060 nM in experiment [2] (L929 cells) and 55.3 nM in experiment [3].

Take `CN1C(=O)[C@@H](NC(=O)c2ncn(Cc3ccccc3)n2)COc2ccc(CN3CCn4c(nnc4C(F)(F)F)C3)cc21` [Compound I-46, (S)-1-benzyl-N-(5-methyl-4-oxo-7-((3-(trifluoromethyl)-5,6-dihydro-[1,2,4]triazolo[4,3-a]pyrazin-7(8H)-yl)methyl)-2,3,4,5-tetrahydrobenzo[b][1,4]oxazepin-3-yl)-1H-1,2,4-triazole-3-carboxamide]: the IC50 came out at 1.2 nM in experiment [1] (setting [4]); 0.4 nM in experiment [2] (Mus musculus, L929, L929 cells); 43.7 nM in experiment [3].

As to `Cc1cccc(C)c1Cn1cnc(C(=O)N[C@H]2COc3ccc(C#CC(C)(C)O)cc3N(C)C2=O)n1` [Compound I-84, (S)-1-(2,6-dimethylbenzyl)-N-(7-(3-hydroxy-3-methylbut-1-yn-1-yl)-5-methyl-4-oxo-2,3,4,5-tetrahydrobenzo[b][1,4]oxazepin-3-yl)-1H-1,2,4-triazole-3-carboxamide], the IC50 in experiment [1] (setting [4]) is 56.3 nM; in experiment [2] (Mus musculus, L929, L929 cells), 12.2 nM; in experiment [3], 44.1 nM.

Consider `CN1C(=O)[C@@H](NC(=O)c2ncn(Cc3ccccc3)n2)COc2ccc(CN3CCn4nc(C(F)(F)F)nc4C3)cc21` [Compound I-39, (S)-1-benzyl-N-(5-methyl-4-oxo-7-((2-(trifluoromethyl)-5,6-dihydro-[1,2,4]triazolo[1,5-a]pyrazin-7(8H)-yl)methyl)-2,3,4,5-tetrahydrobenzo[b][1,4]oxazepin-3-yl)-1H-1,2,4-triazole-3-carboxamide], for which the IC50 in experiment [1] (setting [4]) worked out at 2.7 nM; in experiment [2] (Mus musculus, L929, L929 cells) it was 0.4 nM; in experiment [3] it was 36.4 nM.

Turning to `Cc1cccc(C)c1Cn1cnc(C(=O)N[C@H]2COc3ccc(C#CC(C)(C)C)cc3N(C)C2=O)n1` [Compound I-90, (S)-1-(2,6-dimethylbenzyl)-N-(7-(3,3-dimethylbut-1-yn-1-yl)-5-methyl-4-oxo-2,3,4,5-tetrahydrobenzo[b][1,4]oxazepin-3-yl)-1H-1,2,4-triazole-3-carboxamide], the IC50 in experiment [1] (setting [4]) came out at 9.1 nM; in experiment [2] (Mus musculus, L929, L929 cells), 4.6 nM; in experiment [3], 365 nM.

`CN1C(=O)[C@@H](NC(=O)c2cc(Oc3ccccc3)ccn2)COc2ccc(C#CC3(O)CNC3)cc21` [Compound I-136, (S)—N-(7-((3-hydroxyazetidin-3-yl)ethynyl)-5-methyl-4-oxo-2,3,4,5-tetrahydrobenzo[b][1,4]oxazepin-3-yl)-4-phenoxypicolinamide]: the IC50 was 15.2 nM in experiment [1] (setting [4]); 4970 nM in experiment [2] (Mus musculus, L929, L929 cells); 26.7 nM in experiment [3].

In the case of `CN1C(=O)[C@@H](NC(=O)n2cc(Cc3ccc(F)cc3)cn2)COc2ccc(C#CC(C)(C)O)cc21` [Compound I-218, (S)-4-(4-fluorobenzyl)-N-(7-(3-hydroxy-3-methylbut-1-yn-1-yl)-5-methyl-4-oxo-2,3,4,5-tetrahydrobenzo[b][1,4]oxazepin-3-yl)-1H-pyrazole-1-carboxamide], the IC50 in experiment [1] (setting [4]) is 2.6 nM; in experiment [2] (Mus musculus, L929, L929 cells), 75.8 nM; in experiment [3] it was 24.5 nM.

For `CN1C(=O)[C@@H](NC(=O)c2n[nH]c(Cc3ccccc3)n2)COc2ccc(CCC(=O)N3CCOCC3)cc21` [Compound I-11, (S)-5-benzyl-N-(5-methyl-7-(3-morpholino-3-oxopropyl)-4-oxo-2,3,4,5-tetrahydrobenzo[b][1,4]oxazepin-3-yl)-1H-1,2,4-triazole-3-carboxamide], the IC50 in experiment [1] (setting [4]) came to 8.1 nM; in experiment [2] (Mus musculus, L929, L929 cells), 14100 nM; in experiment [3], 57.1 nM.

Turning to `CN1C(=O)[C@@H](NC(=O)c2n[nH]c(Cc3ccccc3)n2)COc2ccc(C#CC3(O)CCCC3)cc21` [Compound I-53, (S)-5-benzyl-N-(7-((1-hydroxycyclopentyl)ethynyl)-5-methyl-4-oxo-2,3,4,5-tetrahydrobenzo[b][1,4]oxazepin-3-yl)-1H-1,2,4-triazole-3-carboxamide], the IC50 worked out at 1.8 nM in experiment [1] (setting [4]); 0.5 nM in experiment [2] (Mus musculus, L929, L929 cells); 34 nM in experiment [3].

Turning to `C#Cc1ccc2c(c1)N(C)C(=O)[C@@H](NC(=O)c1n[nH]c(Cc3ccccc3)n1)CO2` [Compound I-81, (S)-5-benzyl-N-(7-ethynyl-5-methyl-4-oxo-2,3,4,5-tetrahydrobenzo[b][1,4]oxazepin-3-yl)-1H-1,2,4-triazole-3-carboxamide], the IC50 in experiment [1] (setting [4]) is 4.2 nM; in experiment [2] (Mus musculus, L929, L929 cells) it was 1.2 nM; in experiment [3], 19 nM.

As to `CN1C(=O)[C@@H](NC(=O)n2cc(Cc3ccccc3)cn2)COc2ccc(C#Cc3ccccn3)cc21` [Compound I-215, (S)-4-Benzyl-N-(5-methyl-4-oxo-7-(pyridin-2-ylethynyl)-2,3,4,5-tetrahydrobenzo[b][1,4]oxazepin-3-yl)-1H-pyrazole-1-carboxamide], the IC50 amounted to 0.3 nM in experiment [1] (setting [4]); 20.9 nM in experiment [2] (Mus musculus, L929, L929 cells); 32.1 nM in experiment [3].

`CN1C(=O)[C@@H](NC(=O)c2ncn(Cc3ccccc3F)n2)COc2ccc(CCC(=O)O)cc21` [Compound I-6, (S)-3-(3-(1-(2-fluorobenzyl)-1H-1,2,4-triazole-3-carboxamido)-5-methyl-4-oxo-2,3,4,5-tetrahydrobenzo[b][1,4]oxazepin-7-yl)propanoic acid]: the IC50 in experiment [1] (setting [4]) is 43.8 nM; in experiment [2] (Mus musculus, L929, L929 cells) it was 97500 nM; in experiment [3] it was 72.4 nM.

Take `CN1C(=O)[C@@H](NC(=O)c2cc(Oc3ccccc3)ccn2)COc2ccc(N3CC4(CCOCC4)C3)cc21` [II-28, (S)—N-(5-methyl-4-oxo-7-(7-oxa-2-azaspiro[3.5]nonan-2-yl)-2,3,4,5-tetrahydrobenzo[b][1,4]oxazepin-3-yl)-4-phenoxypicolinamide]: the IC50 worked out at 8.3 nM in experiment [1] (setting [4]); 2220 nM in experiment [2] (Mus musculus, L929 cells); 16.1 nM in experiment [3].

Regarding `C=C(C)C#Cc1ccc2c(c1)N(C)C(=O)[C@@H](NC(=O)c1n[nH]c(Cc3ccccc3)n1)CO2` [Compound I-59, (S)-5-benzyl-N-(5-methyl-7-(3-methylbut-3-en-1-yn-1-yl)-4-oxo-2,3,4,5-tetrahydrobenzo[b][1,4]oxazepin-3-yl)-1H-1,2,4-triazole-3-carboxamide], the half-maximal inhibitory concentration (IC50) in experiment [1] (setting [4]) was 1.9 nM; in experiment [2] (Mus musculus, L929, L929 cells), 0.7 nM; in experiment [3], 57.9 nM.

Consider `CCOC(=O)CCc1ccc2c(c1)N(C)C(=O)[C@@H](NC(=O)c1n[nH]c(Cc3ccccc3)n1)CO2` [Compound I-1, Ethyl (S)-3-(3-(5-benzyl-1H-1,2,4-triazole-3-carboxamido)-5-methyl-4-oxo-2,3,4,5-tetrahydrobenzo[b][1,4]oxazepin-7-yl)propanoate], for which the IC50 turned out to be 2.7 nM in experiment [1] (setting [4]); 2360 nM in experiment [2] (Mus musculus, L929, L929 cells); 19 nM in experiment [3].

`CN1C(=O)[C@@H](NC(=O)c2ncn(Cc3ccccc3)n2)COc2ccc(C#CCCOc3cccc4ncccc34)cc21` [Compound I-44, (S)-1-benzyl-N-(5-methyl-4-oxo-7-(4-(quinolin-5-yloxy)but-1-yn-1-yl)-2,3,4,5-tetrahydrobenzo[b][1,4]oxazepin-3-yl)-1H-1,2,4-triazole-3-carboxamide]: the IC50 in experiment [1] (setting [4]) stood at 1.1 nM; in experiment [2] (Mus musculus, L929, L929 cells), 0.2 nM; in experiment [3] it was 34 nM.
